Source: patent publication US20110034507A1, “FARNESOID X RECEPTOR AGONISTS” (SMITHKLINE BEECHAM CORPORATION, priority 2007, published 2011)

What follows are molecules tested against T1, Human FXRα Ligand Binding Domain (Homo sapiens, UniProt Q96RI1) (assay: FXR Cofactor Binding Assay (ligand mediated SRC-1 cofactor peptide interaction, time resolved fluorescence)). Conditions: FXRα LBD / SRC-1 (LCD2, 676-700) peptide, TRF; read-out: Activity (pEC50) (converted).
T1 construct: polyhistidine (pRSET-A vector leader) (N); made in house; host or cells: E. coli BL21 (DE3), pRSET-A vector
T1 sequence (Q96RI1 237-472 isoform Q96RI1-2): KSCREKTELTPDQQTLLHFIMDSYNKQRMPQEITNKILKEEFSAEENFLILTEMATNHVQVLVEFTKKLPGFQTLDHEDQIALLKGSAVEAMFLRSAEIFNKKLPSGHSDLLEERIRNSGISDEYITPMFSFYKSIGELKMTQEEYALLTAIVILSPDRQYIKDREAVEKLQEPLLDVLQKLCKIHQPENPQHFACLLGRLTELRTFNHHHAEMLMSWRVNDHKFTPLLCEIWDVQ
Type: biochemical
From the text: Determination of a ligand mediated cofactor peptide interaction to quantify ligand binding to the nuclear receptor Farnesoid X Receptor (FXR). The method measures the ability of putative ligands to modulate the interaction between the purified bacterial expressed FXRα ligand binding domain (LBD) and a synthetic biotinylated peptide based on residues 676-700 of steroid receptor coactivator-1 (SRC-1) (LXXLL-containing domain-2 where L is the amino acid leucine and X indicates any other amino acid (LCD2), 676-700). The sequence of the SRC-1 peptide used is as published in Iannone, M. A., et al., 2001 Cytometry 44:326-337 where the N-terminus was biotinylated (B) and the C-terminus was amidated. Detection of the associated complex was measured by time resolved fluorescence (TRF). The purified LBD of FXR was labeled with biotin, then mixed with stoichiometric amounts of allophycocyanin (APC) labeled streptavidin (Molecular Probes). The biotinylated peptide was then mixed with a ½ stoichiometric amount of europium labeled streptavidin (Wallac Inc). Each was then blocked with a 5 fold excess of biotin and allowed to equilibrate for 15 min. Equimolar amounts of receptor and peptide were mixed together and were allowed to equilibrate for at least 30 min prior to the addition to either a variable or constant concentrations of the sample for which the affinity is to be determined. After equilibration, the time-resolved fluorescent signal was quantitated using a fluorescent plate reader. The affinity of the test compound was estimated from a plot of fluorescence versus concentration of test compound added.
Ligands that promote the complex formation induce a concentration-dependent increase in time-resolved fluorescent signal.
Human FXRα Ligand Binding Domain (FXRα LBD) was expressed in E. coli strain BL21 (DE3) as an amino-terminal polyhistidine tagged fusion protein. Expression was under the control of an isopropyl-β-D-thiogalactopyranoside (IPTG) inducible T7 promoter. DNA encoding this recombinant protein is subcloned into the pRSET-A expression vector (Invitrogen). The coding sequence of Human FXRα LBD was derived from Genbank accession number U 68233 (amino acids 237 to 472).
Ten-liter fermentation batches were grown in Rich PO4 media with 0.1 mg/mL Ampicillin at 25° C. for 12 hours, cooled to 9° C. and held at that temperature for 36 hours to a density of OD600=14. At this cell density, 0.25 mM IPTG is added and induction proceeded for 24 hours at 9° C., to a final OD600=16. Cells are harvested by centrifugation (20 minutes, 3500×gravity, 4° C.), and concentrated cell slurries were stored in phosphate buffered saline (PBS) at […].
Routinely, 30-40 g cell paste (equivalent to 2-3 liters of the fermentation batch) was resuspended in 200-250 mL Tris buffered saline (TBS), pH 7.2 (25 mM Tris-hydroxymethylamino methane (Tris), 150 mM sodium chloride). Cells were lysed by passing 3 times through a French Press and cell debris was removed by centrifugation (30 minutes, 20,000×gravity, 4° C.). The cleared supernatant was filtered through course pre-filters, and TBS, pH 7.2, 500 mM imidazole was added to obtain a final imidazole concentration of 50 mM. This lysate was loaded onto a column (6×8 cm) packed with Sepharose [Ni^++ charged] Chelation resin (Pharmacia) and pre-equilibrated with TBS pH 7.2/50 mM imidazole. After washing to baseline absorbance with equilibration buffer, the column was washed with one column volume of TBS pH 7.2 containing 90 mM imidazole. FXRα LBD was eluted directly with 365 mM imidazole. Column fractions were pooled and dialyzed against TBS, pH 7.2, containing 0.5 mM EDTA and 5 mM DTT. The dialyzed protein sample was concentrated using Centri-prep 10 K (Amicon) and subjected to size exclusion, using a column (3×90 cm) packed with Sepharose S-75 resin (Pharmacia) pre-equilibrated with TBS, pH 7.2, containing 0.5 mM ethylene diamine tetraacetic acid (EDTA) and 5 mM dithiothreitol (DTT).

CC(C)c1onc(-c2c(Cl)cccc2Cl)c1COc1ccc2cc(-c3cc(C(=O)O)ccn3)ccc2c1 [Example 21, 2-[6-({[3-(2,6-Dichlorophenyl)-5-(1-methylethyl)-4-isoxazolyl]methyl}oxy)-2-naphthalenyl]-4-pyridinecarboxylic acid] and CC(C)c1onc(-c2c(Cl)cccc2Cl)c1COc1ccc2cc(-c3ccc(C(=O)O)cn3)ccc2c1 [Example 24, 6-[6-({[3-(2,6-Dichlorophenyl)-5-(1-methylethyl)-4-isoxazolyl]methyl}oxy)-2-naphthalenyl]-3-pyridinecarboxylic acid] fall in the same range of EC50: 0.102 to 1 µM for the first, 0.102 to 1 µM for the second.

CC(C)c1onc(-c2c(Cl)cccc2Cl)c1COc1ccc2c(c1)CC(c1cccc(C(=O)O)c1)C2 (stereo not shown) [Example 57, 3-[5-({[3-(2,6-Dichlorophenyl)-5-(1-methylethyl)-4-isoxazolyl]methyl}oxy)-2,3-dihydro-1H-inden-2-yl]benzoic acid] and CC(C)c1onc(-c2c(Cl)cccc2Cl)c1COc1ccc2c(c1)CN(c1cccc(C(=O)O)c1)C2=O [Example 44, 3-[5-({[3-(2,6-Dichlorophenyl)-5-(1-methylethyl)-4-isoxazolyl]methyl}oxy)-1-oxo-1,3-dihydro-2H-isoindol-2-yl]benzoic acid] fall in the same range of EC50: 0.102 to 1 µM for the first, 0.102 to 1 µM for the second.

CC(C)c1onc(-c2c(Cl)cccc2Cl)c1COc1ccc2c(ccn2C(=O)N2CC[C@H](C(=O)O)C2)c1 [Example 55, (3S)-1-{[5-({[3-(2,6-Dichlorophenyl)-5-(1-methylethyl)-4-isoxazolyl]methyl}oxy)-1H-indol-1-yl]carbonyl}-3-pyrrolidinecarboxylic acid] and CC(C)c1onc(-c2c(Cl)cccc2Cl)c1COc1ccc2c(ccn2Cc2nc(C(=O)O)co2)c1 [Example 47, 2-{[5-({[3-(2,6-Dichlorophenyl)-5-(1-methylethyl)-4-isoxazolyl]methyl}oxy)-1H-indol-1-yl]methyl}-1,3-oxazole-4-carboxylic acid] fall in the same range of EC50: 0.102 to 1 µM for the first, 0.102 to 1 µM for the second.

CC(C)c1onc(-c2c(Cl)cccc2Cl)c1COc1ccc2[nH]c(-c3cccc(C(=O)O)c3)cc2c1 [Example 56, 3-[5-({[3-(2,6-Dichlorophenyl)-5-(1-methylethyl)-4-isoxazolyl]methyl}oxy)-1H-indol-2-yl]benzoic acid] and CC(C)c1onc(-c2c(Cl)cccc2Cl)c1COc1ccc2cc(-c3cccc(C(=O)O)c3)sc2c1 [Example 36, 3-[6-({[3-(2,6-Dichlorophenyl)-5-(1-methylethyl)-4-isoxazolyl]methyl}oxy)-1-benzothien-2-yl]benzoic acid] fall in the same range of EC50: 0.102 to 1 µM for the first, 0.102 to 1 µM for the second.

CC(C)c1onc(-c2c(Cl)cccc2Cl)c1COc1ccc2c(Cc3cccc(C(=O)O)c3)c[nH]c2c1 [Example 52, 3-{[6-({[3-(2,6-Dichlorophenyl)-5-(1-methylethyl)-4-isoxazolyl]methyl}oxy)-1H-indol-3-yl]methyl}benzoic acid] and CC(C)c1onc(-c2c(Cl)cccc2Cl)c1COc1ccc2cc(-c3ccc(C(=O)O)s3)ccc2c1 [Example 25, 5-[6-({[3-(2,6-Dichlorophenyl)-5-(1-methylethyl)-4-isoxazolyl]methyl}oxy)-2-naphthalenyl]-2-thiophenecarboxylic acid] fall in the same range of EC50: 0.102 to 1 µM for the first, 0.102 to 1 µM for the second.

CC(C)c1onc(-c2c(Cl)cccc2Cl)c1CCc1nc2cc(-c3cccc(C(=O)O)c3)ccc2o1 [Example 39, 3-(2-{2-[3-(2,6-dichlorophenyl)-5-(1-methylethyl)-4-isoxazolyl]ethyl}-1,3-benzoxazol-5-yl)benzoic acid] and CC(C)c1onc(-c2c(Cl)cccc2Cl)c1CCc1nc2cccc(Nc3cccc(C(=O)O)c3)c2o1 [Example 41, 3-[(2-{2-[3-(2,6-Dichlorophenyl)-5-(1-methylethyl)-4-isoxazolyl]ethyl}-1,3-benzoxazol-7-yl)amino]benzoic acid] fall in the same range of EC50: 1.02 to 10 µM for the first, 1.02 to 10 µM for the second.

CC(C)c1onc(-c2c(Cl)cccc2Cl)c1COc1ccc2c(ccn2Cc2cccc(C(=O)O)n2)c1 [Example 49, 6-{[5-({[3-(2,6-Dichlorophenyl)-5-(1-methylethyl)-4-isoxazolyl]methyl}oxy)-1H-indol-1-yl]methyl}-2-pyridinecarboxylic acid] and CC(C)c1onc(-c2c(Cl)cncc2Cl)c1COc1ccc2ccn(Cc3cccc(C(=O)O)c3)c2c1 [Example 8, 3-{[6-({[3-(3,5-dichloro-4-pyridinyl)-5-(1-methylethyl)-4-isoxazolyl]methyl}oxy)-1H-indol-1-yl]methyl}benzoic acid] fall in the same range of EC50: 0.102 to 1 µM for the first, 0.102 to 1 µM for the second.

First: CC(C)c1onc(CSc2nccs2)c1COc1ccc2c(ccn2Cc2cccc(C(=O)O)c2)c1 [Example 6, 3-({5-[({5-(1-methylethyl)-3-[(1,3-thiazol-2-ylthio)methyl]-4-isoxazolyl}methyl)oxy]-1H-indol-1-yl}methyl)benzoic acid]
Second: Cc1cccc(C)c1OCc1noc(C(C)C)c1COc1ccc2c(ccn2Cc2cccc(C(=O)O)c2)c1 [Example 1, 3-{[5-({[3-{[(2,6-dimethylphenyl)oxy]methyl}-5-(1-methylethyl)-4-isoxazolyl]methyl}oxy)-1H-indol-1-yl]methyl}benzoic acid]
The EC50 of the first is higher: 1.02 to 10 µM for the first, 0.102 to 1 µM for the second.

CC(C)c1onc(-c2c(Cl)cccc2Cl)c1COc1ccc2cc(-c3ccc(Cl)c(C(=O)O)c3)ccc2c1 [Example 34, 2-Chloro-5-[6-({[3-(2,6-dichlorophenyl)-5-(1-methylethyl)-4-isoxazolyl]methyl}oxy)-2-naphthalenyl]benzoic acid] and CC(=O)Nc1cccc(-c2ccc3cc(OCc4c(-c5c(Cl)cccc5Cl)noc4C(C)C)ccc3c2)c1 [Example 29, N-{3-[6-({[3-(2,6-dichlorophenyl)-5-(1-methylethyl)-4-isoxazolyl]methyl}oxy)-2-naphthalenyl]phenyl}acetamide] fall in the same range of EC50: 0.102 to 1 µM for the first, 0.102 to 1 µM for the second.

CC(C)c1onc(-c2c(Cl)cccc2Cl)c1COc1ccc2cc(-c3ccc(CCC(=O)O)cc3)ccc2c1 [Example 23, 3-{4-[6-({[3-(2,6-Dichlorophenyl)-5-(1-methylethyl)-4-isoxazolyl]methyl}oxy)-2-naphthalenyl]phenyl}propanoic acid] and CC(C)c1onc(COc2c(Cl)cc(F)cc2Cl)c1COc1ccc2c(ccn2Cc2cccc(C(=O)O)c2)c1 [Example 14, 3-{[5-({[3-{[(2,6-Dichloro-4-fluorophenyl)oxy]methyl}-5-(1-methylethyl)-4-isoxazolyl]methyl}oxy)-1H-indol-1-yl]methyl}benzoic acid] fall in the same range of EC50: 0.102 to 1 µM for the first, 0.102 to 1 µM for the second.

First: CC(C)c1onc(COc2c(Br)cccc2Br)c1COc1ccc2c(ccn2Cc2cccc(C(=O)O)c2)c1 [Example 5, 3-{[5-({[3-{[(2,6-dibromophenyl)oxy]methyl}-5-(1-methylethyl)-4-isoxazolyl]methyl}oxy)-1H-indol-1-yl]methyl}benzoic acid]
Second: CC(C)c1onc(COc2c(F)cc(F)cc2F)c1COc1ccc2c(ccn2Cc2cccc(C(=O)O)c2)c1 [Example 2, 3-[(5-{[(5-(1-methylethyl)-3-{[(2,4,6-trifluorophenyl)oxy]methyl}-4-isoxazolyl)methyl]oxy}-1H-indol-1-yl)methyl]benzoic acid]
The EC50 of the first is lower: 0.102 to 1 µM for the first, 1.02 to 10 µM for the second.
